Results taken from US20050090529A1, “3,5 Disubstituted indazole compounds with nitrogen-bearing 5-membered heterocycles, pharmaceutical compositions, and methods for mediating or inhibiting cell proliferation” (PFIZER INC, priority 2003, published 2005).
pKi: −log10 of the molar value.

The compounds below were run on Cyclin-dependent kinase (assay: Cyclin-dependent kinase inhibition, % inhibition at 10 nM (library Examples 99-270)). Conditions: 10 nM compound.
Assay type: biochemical
Method in brief: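 Enzyme starts the reaction at 30° C, which runs 20 min with 25 μM [³²P/³³P]ATP and protein substrate (pH 7.4, 10 mM MgCl2, 2% DMSO). After EDTA quench, membrane-bound labelled substrate is read by phosphorimaging following acid washes.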

Row | Compound | % Inhib @ 10 nM [%]
1 | CCNCc1cncc(-c2ccc3[nH]nc(-c4ncc(C(=O)N5CCC(c6ccn[nH]6)CC5)[nH]4)c3c2)c1C [Example 250, ethyl({4-methyl-5-[3-(5-{[4-(1H-pyrazol-5-yl)piperidin-1-yl]carbonyl}-H-imidazol-2-yl)-1 H-indazol-5-yl]pyridin-3-yl}methyl)amine] | 62
2 | CCNCc1cncc(-c2ccc3[nH]nc(-c4ncc(C(=O)N5CCC(c6ccnc(NCC)n6)CC5)[nH]4)c3c2)c1C [Example 252, N-ethyl-4-(1-{[2-(5-{5-[(ethylamino)methyl]-4-methylpyridin-3-yl}-1H-indazol-3-yl)-1H-imidazol-5-yl]carbonyl}piperidin-4-yl)pyrimidin-2-amine] | 41
3 | CCNCc1cncc(-c2ccc3[nH]nc(-c4ncc(C(=O)NCCC5CCC(=O)N5Cc5ccccc5)[nH]4)c3c2)c1C (stereo not shown) [Example 253, N-[2-(1-benzyl-5-oxopyrrolidin-2-yl)ethyl]-2-(5-{5-[(ethylamina)methyl]-4-methylpyridin-3-yl}-1H-indazol-3-yl)-1H-imidazole-5-carboxamide] | 18
4 | CCNCc1cncc(-c2ccc3[nH]nc(-c4ncc(C(=O)NCc5nnc(-c6ccccc6OC)o5)[nH]4)c3c2)c1C [Example 255, 2-(5-{5-[(ethylamino)methyl]-4-methylpyridin-3-yl}-1H-indazol-3-yl)-N-{[5-(2-methoxyphenyl)-1,3,4-oxadiazol-2-yl]methyl}-1H-imidazole-5-carboxamide] | 40
5 | CCNCc1cncc(-c2ccc3[nH]nc(-c4ncc(C(=O)N5CCC(c6nnc(CN(C)C)o6)CC5)[nH]4)c3c2)c1C [Example 257] | 37
6 | CCNCc1cncc(-c2ccc3[nH]nc(-c4ncc(C(=O)N5CCc6c(C(=O)NC)csc6C5)[nH]4)c3c2)c1C [Example 259, 6-{[2-(5-{5-[(ethylamino)methyl]-4-methylpyridin-3-yl}-1H-indazol-3-yl)-1H-imidazol-5-yl]carbonyl}-N-methyl-4,5,6,7-tetrahydrothieno[2,3-c]pyridine-3-carboxamlde] | 69
7 | CCNCc1cncc(-c2ccc3[nH]nc(-c4ncc(C(=O)N5CCC(Cc6ncccn6)CC5)[nH]4)c3c2)c1C [Example 260, ethyl({4-methyl-5-[3-(5-{[4-(pyrimidin-2-ylmethyl)piperidin-1-yl]carbonyl}-1H-imidazol-2-yl)-1H-indazol-5-yl]pyridin-3-yl}methyl)amine] | 33
8 | CCNCc1cncc(-c2ccc3[nH]nc(-c4ncc(C(=O)N5CCCC(Cc6ncccn6)CC5)[nH]4)c3c2)c1C (stereo not shown) [Example 261, ethyl({4-methyl-5-[3-(5-{[4-(pyrimidin-2-ylmethyl)azepan-1-yl]carbonyl}-1H-imidazol-2-yl)-1H-indazol-5-yl]pyridin-3-yl}methyl)amine] | 30
9 | CCNCc1cncc(-c2ccc3[nH]nc(-c4ncc(C(=O)N5CCC(Cc6cccc(CO)c6)CC5)[nH]4)c3c2)c1C [Example 262, (3-[(1-{[2-(5-{5-[(ethylamino)methyl]-4-methylpyridin-3-yl}-1H-indazol-3-yl)-1H-imidazol-5-yl]carbonyl}piperidin-4-yl)methyl]phenyl}methanol] | 59
10 | CCNCc1cncc(-c2ccc3[nH]nc(-c4ncc(C(=O)NCCc5nnc(-c6cnccn6)o5)[nH]4)c3c2)c1C [Example 264] | 29
11 | CCNCc1cncc(-c2ccc3[nH]nc(-c4ncc(C(=O)N5CCCC(O)(Cn6cccn6)CC5)[nH]4)c3c2)c1C (stereo not shown) [Example 265, 1-{[2-(5-{5-[(ethylamino)methyl]-4-methylpyridin-3-yl}-1H-indazol-3-yl)-1H-imidazol-5-yl]carbonyl}-4-(1H-pyrazol-1-ylmethyl)azepan-4-ol] | 29
12 | CCNCc1cncc(-c2ccc3[nH]nc(-c4ncc(C(=O)N5CCC(O)(CN6CCOCC6)CC5)[nH]4)c3c2)c1C [Example 266, 1-{[2-(5-{5-[(ethylamino)methyl]-4-methylpyridin-3-yl}-1H-indazol-3-yl)-1H-imidazol-5-yl]carbonyl}-4-(morpholin-4-ylmethyl)piperidin-4-ol] | 18
13 | CCNCc1cncc(-c2ccc3[nH]nc(-c4ncc(C(=O)N5CCCC(O)(CN6CCCC6=O)CC5)[nH]4)c3c2)c1C (stereo not shown) [Example 267, 1-[(1-{[2-(5-{5-[(ethylamino)methyl]-4-methylpyridin-3-yl}-1H-indazol-3-yl)-1H-imidazol-5-yl]carbonyl}-4-hydroxyazepan-4-yl)methyl]pyrrolidin-2-one] | 21
14 | CCNCc1cncc(-c2ccc3[nH]nc(-c4ncc(C(=O)N5CCCC(O)(CN6CCOCC6)CC5)[nH]4)c3c2)c1C (stereo not shown) [Example 268] | 15

Next, values leading:

Row | % Inhib @ 10 nM [%] | Compound
15 | 27 | CCNCc1cncc(-c2ccc3[nH]nc(-c4ncc(C(=O)NCCn5cc(C(=O)NC(C)(C)C)nn5)[nH]4)c3c2)c1C [Example 251]
16 | 11 | CCNCc1cncc(-c2ccc3[nH]nc(-c4ncc(C(=O)N5CCC6(CC5)CC(N5CCCC5)CO6)[nH]4)c3c2)c1C (stereo not shown) [Example 254, ethyl{[4-methyl-5-(3-{5-[(3-pyrrolidin-1-yl-1-oxa-8-azaspiro[4.5]dec-8-yl)carbonyl]-1H-imidazol-2-yl}-1H-indazol-5-yl)pyridin-3-yl]methyl}amine]
17 | 46 | CCNCc1cncc(-c2ccc3[nH]nc(-c4ncc(C(=O)N5CCC(c6nnc(C7CC7)o6)CC5)[nH]4)c3c2)c1C [Example 256, ({5-[3-(5-[[4-(5-cyclopropyl-1,3,4-oxadiazol-2-yl)piperidin-1-yl]carbonyl}-1H-imidazol-2-yl)-1H-indazol-5-yl]-4-methylpyridin-3-yl}methyl)ethylamine]
18 | 49 | CCNCc1cncc(-c2ccc3[nH]nc(-c4ncc(C(=O)N(CCC#N)CC5CCCO5)[nH]4)c3c2)c1C (stereo not shown) [Example 258]
19 | 69 | CCNCc1cncc(-c2ccc3[nH]nc(-c4ncc(C(=O)N5CCC(Cc6ccc(C(N)=O)cc6)CC5)[nH]4)c3c2)c1C [Example 263, 4-[(1-{[2-(5-{5-[(ethylamino)methyl]-4-methylpyridin-3-yl}-1H-indazol-3-y)-1H-imidazol-5-yl]carbonyl}piperidin-4-yl)methyl]benzamide]
20 | 34 | CCNCc1cncc(-c2ccc3[nH]nc(-c4ncc(C(=O)N5CCCC(COCC6CC6)C5)[nH]4)c3c2)c1C (stereo not shown) [Example 269, [(5-(3-[5-({3-[(cyclopropylmethoxy)methyl]piperidin-1-yl}carbonyl)-1H-imidazol-2-yl]-1H-indazol-5-yl}-4-methylpyridin-3-yl)methyl]ethylamine]
21 | 27 | CCNCc1cncc(-c2ccc3[nH]nc(-c4ncc(C(=O)NCCc5nnc(CC(C)C)o5)[nH]4)c3c2)c1C [Example 270, 2-(5-{5-[(ethylamino)methyl]-4-methylpyridin-3-yl}-1H-indazol-3-yl)-N-[2-(5-isobutyl-1,3,4-oxadiazol-2-yl)ethyl]-1H-imidazole-5-carboxamide]

Each compound was assayed against T1, CDK2/Cyclin A (Homo sapiens, UniProt P24941) (assay: Inhibition of CDK2/Cyclin A retinoblastoma kinase activity (apparent Ki)). Conditions: read-out: CDK2 Ki.
T1 construct: made in house; host or cells: CDK2: insect cells (baculovirus); cyclin A: E. coli
Assay type: biochemical
Experimental: Cyclin-dependent kinase activity was measured by quantifying the enzyme-catalyzed, time-dependent incorporation of radioactive phosphate from [^32P]ATP or [^33P]ATP into a protein substrate. […] Reactions were initiated with enzyme, incubated at 30° C., and terminated after 20 minutes by the addition of ethylenediaminetetraacetic acid (EDTA) to 250 mM. […] Radioactivity was quantified by exposing the dried membranes to a phosphorimager.
Apparent Ki values were measured by assaying enzyme activity in the presence of different inhibitor compound concentrations and subtracting the background radioactivity measured in the absence of enzyme. Inhibition data were fit to an equation for competitive inhibition using Kaleidagraph (Synergy Software), or were fit to an equation for competitive tight-binding inhibition using the software KineTic (BioKin, Ltd.).
A complex of CDK2 and proteolyzed cyclin A was prepared and purified by gel filtration. […] Ki values were measured as described above.

Row | Compound | pKi
22 | CCNCc1cncc(-c2ccc3[nH]nc(-c4nc(-c5ccccc5)c(C(=O)NC)[nH]4)c3c2)c1C [Example 6, 2-[5-(5-Ethylaminomethyl-4-methyl-pyridin-3-yl)-1H-indazol-3-yl]-5-phenyl-3H-imidazole-4-carboxylic acid methylamide] | 6.70 to 7.30
23 | CCNCc1cncc(-c2ccc3[nH]nc(-c4nc(-c5ccccc5)c(C(=O)NC5CCCCC5)[nH]4)c3c2)c1C [Example 12, 2-[5-(5-Ethylaminomethyl-4-methyl-pyridin-3-yl)-1H-indazol-3-yl]-5-phenyl-3H-imidazole-4-carboxylic acid cyclohexylamide] | 6.70 to 7.30
24 | CCNCc1cncc(-c2ccc3[nH]nc(-c4nc(-c5ccccc5)c(C(=O)NCCCO)[nH]4)c3c2)c1C [Example 17, 2-[5-(5-Ethylaminomethyl-4-methyl-pyridin-3-yl)-1H-indazol-3-yl]-5-phenyl-3H-imidazole-4-carboxylic acid (3-hydroxy-propyl)-amide] | 6.70 to 7.30
25 | CCNCc1cncc(-c2ccc3[nH]nc(-c4nc(-c5ccccc5)c(C(=O)NCCCCO)[nH]4)c3c2)c1C [Example 18, 2-[5-(5-Ethylaminomethyl-4-methyl-pyridin-3-yl)-1H-indazol-3-yl]-5-phenyl-3H-imidazole-4-carboxylic acid (4-hydroxy-butyl)-amide] | < 6.70

More lines, now with the values ahead:

Row | pKi | Compound
26 | < 6.70 | CCNCc1cncc(-c2ccc3[nH]nc(-c4nc(-c5ccccc5)c(C(=O)NCCN(C)C)[nH]4)c3c2)c1C [Example 16, 2-[5-(5-Ethylaminomethyl-4-methyl-pyridin-3-yl)-1H-indazol-3-yl]-5-phenyl-3H-imidazole-4-carboxylic acid (2-dimethylamino-ethyl)-amide]
27 | > 7.30 | CCNCc1cncc(-c2ccc3[nH]nc(-c4nc5c([nH]4)CCCC5)c3c2)c1C [Example 21, Ethyl-{4-methyl-5-[3-(4,5,6,7-tetrahydro-1H-benzoimidazol-2-yl)-1H-indazol-5-yl]-pyridin-3-ylmethyl}-amine]
28 | > 7.30 | CCNCc1cncc(-c2ccc3[nH]nc(-c4nc(-c5ccc(OC)c(OC)c5)c[nH]4)c3c2)c1C [Example 33, (5-{3-[4-(3,4-Dimethoxy-phenyl)-1H-imidazol-2-yl]-1H-indazol-5-yl}-4-methyl-pyridin-3-ylmethyl)-ethyl-amine]
